pKd: −log10 of the molar value.
Columns and labels:
[1] = target: C-terminal peptide of p53; assay: Affinity of DPp53C1 to the C-terminal peptide of p53; format: binding
[2] = test system: p53 monomer (L344P) mutant; assay: Recruitment (enrichment index) of p53 monomer into designed peptide droplets; set-up: species or system human; details: 0.9–1.8 mM designed peptide, 0.1 µM Alexa488-labeled p53, 25 mM HEPES, 0.5 mM EDTA, 1 mM DTT, pH 7.0, 22 °C; ± standard error; SEM
Text: (§1) We prepared p53 tetramer, dimer, and monomer mutants, as described previously[8],[37],[50]. For the p53 tetramer, a thermostable and cysteine-modified human p53 mutant (C124A, C135V, C141V, W146Y, C182S, V203A, R209P, C229Y, H233Y, Y234F, N235K, Y236F, T253V, N268D, C275A, C277A, and K292C) was used[50]. The dimer and monomer mutants of p53 corresponded to L344A and L344P of the tetramer sequence, respectively[8],[37]. These p53 mutants were expressed with a glutathione S-transferase (GST) tag in E. coli and purified after cleavage of the GST tag, as described previously[50],[51]. The oligomeric state of p53 mutants was confirmed using a gel filtration column (Superdex 200; GE Healthcare). p53 mutants were labeled with Atto488 (ATTO-TEC) or Alexa488 (Thermo Fisher) using maleimide chemistry and then purified using a heparin column (GE Healthcare). We prepared Alexa488-labeled FUS-MBP as described previously[37],[39].
(§2) Recruitment evaluations were performed following the method described in our previous studies[37],[41]. Solutions containing 0.9–1.8 mM designed peptides, 0.1 µM Alexa488-labeled p53 mutants or Alexa488, 25 mM HEPES, 0.5 mM EDTA, and 1 mM DTT at pH 7.0 were used. The solutions were then incubated at 22 °C for five minutes. The aforementioned microscope was used with HILO illumination. To prevent photo-bleaching of the fluorescent samples, we used a laser power of 0.15 mW. The images were acquired at 22 °C. Using the ImageJ software, we calculated the EI values of the individual droplets as follows:2 EI=Idroplet/Isolution, where Idroplet and Isolution represent the average fluorescence intensities of the individual droplets and solutions near the droplets with background substitution, respectively.

p53 tetramer = assay: Recruitment (enrichment index) of p53 tetramer into designed peptide droplets; set-up: species or system human; details: droplet interior regions, surface not included; no salt, pH 7.0
Text: as §1, §2

[3] = Single-molecule fluorescence tracking (HILO) of labeled molecules in their droplets; format: physicochemical; details: Alexa488-labeled peptide 10–100 pM in 0.9 mM non-labeled peptide droplets; 25 mM HEPES, 0.5 mM EDTA, 45 mM NaCl, 150 mg/mL dextran, pH 7.0; linear fit of MSD (4D slope)
Procedure: We quantitatively characterized the liquid droplet properties of the four designed peptides and compared them with those of p53. We measured the fusion of the designed peptide droplets in the solution used for p53 droplets (Supplementary Fig. S4). In the presence of 45 mM NaCl and 150 mg/mL dextran, the fusion of droplets for the four designed peptides was observed within 0.2 s, which was much faster than that for p53 (3.7 min)[8]. This gap in the fusion period implies different intrinsic dynamic properties. We measured the movement of Alexa488-labeled peptides within non-labeled peptide droplets using single-molecule fluorescence microscopy with a highly inclined and laminated optical sheet (HILO) illumination[37],[41] (Fig. 3A). […]
Single-molecule measurements were performed following the method described in our previous studies[37],[41]. An inverted fluorescence microscope (IX-73; Olympus) with a total internal reflection fluorescence unit (IX3RFAEVAW; Olympus) was used[52],[53]. […] The fluorescence collected via the objective lens was detected using an EM-CCD camera (iXon Ultra 888, Andor). […] Images were recorded at intervals of 15–154 ms after reducing the number of observable molecules in the droplets by photobleaching within one minute. […]

[4] = test system: maltose binding protein-fused FUS (FUS-MBP); assay: Recruitment (enrichment index) of FUS-MBP into designed peptide droplets; details: 1 mM DPp53N-GSGS-D7, 100 nM Alexa488-labeled protein, 1 mM DTT, pH 7.0
Procedure: as §2, with “Solutions containing 0.9–1.8 mM designed peptides, 0.1 µM Alexa488-labeled p53 mutants or Alexa488, 25 mM HEPES, 0.5 mM EDTA, and 1 mM DTT at pH 7.0 were used.” left out
Fig. S10 p53 monomer is localized inside droplets of DPp53N-GSGS-D7, whereas FUS-MBP is localized in its droplet surfaces. Fluorescence images of Alexa488-labeled p53 monomer mutant (L344P) and FUS-MBP in droplet solution of non-labeled DPp53N-GSGS-D7. The solution containing 103 mM HEPES and 1 mM DTT, 100 nM Alexa488 labeled proteins, and 1 mM DPp53N-GSGS-D7 at pH 7.0 was used.
Fig. S13 Design and experimental verification of artificial PS peptides from PS protein FUS. […] (B) DIC and fluorescence images of the solution containing 4 mM FUS designed peptide and 120 mM HEPES at pH 7.0. […] (C) Fluorescence images of Alexa488-labeled FUS-MBP in non-labeled FUS-designed-peptide droplet solution. […]

| Sequence | pKd [1] | Enrichment index (EI) of p53 monomer (L344P) mutant in peptide droplets [2] | Decrease of average EI of p53 tetramer relative to p53 monomer (p53 tetramer) [fold] | Average diffusion coefficient (D) in own droplets [3] [μm^2/s] | Average EI of FUS-MBP, fold smaller than that of p53 monomer [4] [fold] |
| --- | --- | --- | --- | --- | --- |
| DDDASQEDDD [DPp53C1] | 5.00 |  |  |  |  |
| RRRVVQRRRRGSGSDDDDDDD [DPp53N-GSGS-D7] |  | 22.3 ± 0.7 | 10.5 | 0.26 ± 0.01 | 2.2 |

Source: article PMC10079954, “Rational design of phase separating peptides based on phase separating protein sequence of p53” (Scientific Reports, 2023)
